Results: patent publication US8563542B2 (Cyclacel Limited, priority 2007, dated 2013)

Target: PLK1 (Homo sapiens, UniProt P53350)
Assay: PLK1 protein kinase assay (CDC25C phosphorylation, [γ-32P]-ATP)
Type: biochemical
Conditions: Table 2, PLK1 IC50; class symbols; read-out: PLK1 IC50

Chain of PLK1 (P53350 whole entry): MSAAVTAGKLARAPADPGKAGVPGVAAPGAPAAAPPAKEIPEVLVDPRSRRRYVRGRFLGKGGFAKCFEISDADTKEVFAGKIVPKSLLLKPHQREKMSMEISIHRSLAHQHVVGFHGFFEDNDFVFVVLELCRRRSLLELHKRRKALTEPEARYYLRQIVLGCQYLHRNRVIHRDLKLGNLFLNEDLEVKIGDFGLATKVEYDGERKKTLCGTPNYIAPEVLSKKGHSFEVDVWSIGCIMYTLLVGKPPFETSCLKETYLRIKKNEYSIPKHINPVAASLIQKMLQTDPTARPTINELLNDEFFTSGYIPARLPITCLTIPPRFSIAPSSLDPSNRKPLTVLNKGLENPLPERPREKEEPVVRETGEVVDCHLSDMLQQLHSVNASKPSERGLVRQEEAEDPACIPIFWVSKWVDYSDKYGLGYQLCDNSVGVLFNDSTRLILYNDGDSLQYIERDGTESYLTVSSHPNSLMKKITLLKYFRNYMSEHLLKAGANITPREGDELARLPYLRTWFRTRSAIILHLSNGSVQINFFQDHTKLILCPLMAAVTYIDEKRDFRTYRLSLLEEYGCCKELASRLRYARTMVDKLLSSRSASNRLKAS

IC50 [nM]	SMILES
< 1000	COc1cc(C(=O)NC2CCN(Cc3ccccc3)CC2)ccc1Nc1ncc2c(n1)N(CC1CC1)CCC(=O)N2C [compound 241, N-(1-Benzyl-piperidin-4-yl)-4-(9-cyclopropylmethyl-5-methyl-6-oxo-6,7,8,9-tetrahydro-5H-pyrimido[4,5-b][1,4]diazepin-2-ylamino)-3-methoxy-benzamide]
< 1000	COc1cc(C(=O)NCC2CCN(C)CC2)ccc1Nc1ncc2c(n1)N(CC1CC1)CCC(=O)N2C [compound 242, 4-(9-Cyclopropylmethyl-5-methyl-6-oxo-6,7,8,9-tetrahydro-5H-pyrimido[4,5-b][1,4]diazepin-2-ylamino)-3-methoxy-N-(1-methyl-piperidin-4-ylmethyl)-benzamide]
< 1000	COc1cc(C(=O)NC2CC(C)(C)N(C)C(C)(C)C2)ccc1Nc1ncc2c(n1)N(CC1CC1)CCC(=O)N2C [compound 244, 4-(9-Cyclopropylmethyl-5-methyl-6-oxo-6,7,8,9-tetrahydro-5H-pyrimido[4,5-b][1,4]diazepin-2-ylamino)-3-methoxy-N-(1,2,2,6,6-pentamethyl-piperidin-4-yl)-benzamide]
< 1000	COc1cc(C(=O)NC2CCCN(C)C2)ccc1Nc1ncc2c(n1)N(CC1CC1)CCC(=O)N2C (stereo not drawn) [compound 245, 4-(9-Cyclopropylmethyl-5-methyl-6-oxo-6,7,8,9-tetrahydro-5H-pyrimido[4,5-b][1,4]diazepin-2-ylamino)-3-methoxy-N-(1-methyl-piperidin-3-yl)-benzamide]
< 1000	COc1cc(C(=O)NCC(C)(C)CN(C)C)ccc1Nc1ncc2c(n1)N(CC1CC1)CCC(=O)N2C [compound 246, 4-(9-Cyclopropylmethyl-5-methyl-6-oxo-6,7,8,9-tetrahydro-5H-pyrimido[4,5-b][1,4]diazepin-2-ylamino)-N-(3-dimethylamino-2,2-dimethyl-propyl)-3-methoxy-benzamide]
< 1000	COc1cc(C(=O)NCCCN(C)C)ccc1Nc1ncc2c(n1)N(CC1CC1)CCC(=O)N2C [compound 247, 4-(9-Cyclopropylmethyl-5-methyl-6-oxo-6,7,8,9-tetrahydro-5H-pyrimido[4,5-b][1,4]diazepin-2-ylamino)-N-(3-dimethylamino-propyl)-3-methoxy-benzamide]
< 1000	COc1cc(C(=O)NC2CCCC2)ccc1Nc1ncc2c(n1)N(CC1CC1)CCC(=O)N2C [compound 248, N-Cyclopentyl-4-(9-cyclopropylmethyl-5-methyl-6-oxo-6,7,8,9-tetrahydro-5H-pyrimido[4,5-b][1,4]diazepin-2-ylamino)-3-methoxy-benzamide]
< 1000	COc1cc(C(=O)NCc2cccn2C)ccc1Nc1ncc2c(n1)N(CC1CC1)CCC(=O)N2C [compound 249, 4-(9-Cyclopropylmethyl-5-methyl-6-oxo-6,7,8,9-tetrahydro-5H-pyrimido[4,5-b][1,4]diazepin-2-ylamino)-3-methoxy-N-(1-methyl-1H-pyrrol-2-ylmethyl)-benzamide]
< 100	COc1cc(C(=O)NCC(C)(C)CN(C)C)ccc1Nc1ncc2c(n1)N(C1CCCC1)CC1(CC1)C(=O)N2C [compound 256, 4-(9-Cyclopentyl-5-methyl-6-oxo-6,7,8,9-tetrahydro-5H-pyrimido[4,5-b][1,4]diazepin-3,1′-cyclopropane-2-ylamino)-N-(3-dimethylamino-2,2-dimethyl-propyl)-3-methoxy-benzamide]

Continued, compound first:

SMILES	IC50 [nM]
COc1cc(C(=O)O)ccc1Nc1ncc2c(n1)N(C1CCCC1)CC1(CC1)C(=O)N2C [compound 239, 4-(9-Cyclopentyl-5-methyl-6-oxo-6,7,8,9-tetrahydro-5H-pyrimido[4,5-b][1,4]diazepin-3,1′-cyclopropane-2-ylamino)-3-methoxy-benzoic acid]	< 1000
COc1cc(C(=O)NC2CN3CCC2CC3)ccc1Nc1ncc2c(n1)N(CC1CC1)CCC(=O)N2C (stereo not drawn) [compound 243, N-(1-Aza-bicyclo[2.2.2]oct-3-yl)-4-(9-cyclopropylmethyl-5-methyl-6-oxo-6,7,8,9-tetrahydro-5H-pyrimido[4,5-b][1,4]diazepin-2-ylamino)-3-methoxy-benzamide]	< 1000
COc1cc(C(=O)NC(C)(C)CN2CCCC2)ccc1Nc1ncc2c(n1)N(C1CCCC1)CC1(CC1)C(=O)N2C [compound 250, 4-(9-Cyclopentyl-5-methyl-6-oxo-6,7,8,9-tetrahydro-5H-pyrimido[4,5-b][1,4]diazepin-3,1′-cyclopropane-2-ylamino)-N-(1,1-dimethyl-2-pyrrolidin-1-yl-ethyl)-3-methoxy-benzamide]	< 1000
COc1cc(C(=O)NC(C)(C)CN2CCCCC2)ccc1Nc1ncc2c(n1)N(C1CCCC1)CC1(CC1)C(=O)N2C [compound 251, 4-(9-Cyclopentyl-5-methyl-6-oxo-6,7,8,9-tetrahydro-5H-pyrimido[4,5-b][1,4]diazepin-3,1′-cyclopropane-2-ylamino)-N-(1,1-dimethyl-2-piperidin-1-yl-ethyl)-3-methoxy-benzamide]	< 1000
COc1cc(C(=O)NC2CCN(Cc3ccccc3)CC2)ccc1Nc1ncc2c(n1)N(C1CCCC1)CC1(CC1)C(=O)N2C [compound 252, 4-(9-Cyclopentyl-5-methyl-6-oxo-6,7,8,9-tetrahydro-5H-spiro[pyrimido[4,5-b][1,4]diazepin-3,1′-cyclopropane]-2-ylamino)-3-methoxy-N-(1-benzylpiperidin-4-yl)-benzamide]	< 1000
COc1cc(C(=O)NCC2CCN(C)CC2)ccc1Nc1ncc2c(n1)N(C1CCCC1)CC1(CC1)C(=O)N2C [compound 253, 4-(9-Cyclopentyl-5-methyl-6-oxo-6,7,8,9-tetrahydro-5H-pyrimido[4,5-b][1,4]diazepin-3,1′-cyclopropane-2-ylamino)-3-methoxy-N-(1-methyl-piperidin-4-ylmethyl)-benzamide]	< 100
COc1cc(C(=O)NC2CC(C)(C)N(C)C(C)(C)C2)ccc1Nc1ncc2c(n1)N(C1CCCC1)CC1(CC1)C(=O)N2C [compound 255, 4-(9-Cyclopentyl-5-methyl-6-oxo-6,7,8,9-tetrahydro-5H-spiro[pyrimido[4,5-b][1,4]diazepin-3,1′-cyclopropane]-2-ylamino)-3-methoxy-N-(1,2,2,6,6-pentamethyl-piperidin-4-yl)-benzamide]	< 100
COc1cc(C(=O)NCc2ccncc2)ccc1Nc1ncc2c(n1)N(C1CCCC1)CC1(CC1)C(=O)N2C [compound 258, 4(9-Cyclopentyl-5-methyl-6-oxo-6,7,8,9-tetrahydro-5H-pyrimido[4,5-b][1,4]diazepin-3,1′-cyclopropane-2-ylamino)-3-methoxy-N-pyridin-4-ylmethyl-benzamide]	< 100
COc1cc(C(=O)NCc2cccn2C)ccc1Nc1ncc2c(n1)N(C1CCCC1)CC1(CC1)C(=O)N2C [compound 259, 4-(9-Cyclopentyl-5-methyl-6-oxo-6,7,8,9-tetrahydro-5H-pyrimido[4,5-b][1,4]diazepin-3,1′-cyclopropane-2-ylamino)-3-methoxy-N-(1-methyl-1 H-pyrrol-2-ylmethyl)-benzamide]	< 100
COc1cc(C(=O)NC2CCCC2)ccc1Nc1ncc2c(n1)N(C1CCCC1)CC1(CC1)C(=O)N2C [compound 260, N-Cyclopentyl-4-(9-Cyclopentyl-5-methyl-6-oxo-6,7,8,9-tetrahydro-5H-spiro[pyrimido[4,5-b][1,4]diazepin-3,1′-cyclopropane]-2-ylamino)-3-methoxy-benzamide]	< 100
CCc1cc(C(=O)NC2CCN(C)CC2)ccc1Nc1ncc2c(n1)N(C1CCCC1)CC1(CC1)C(=O)N2C [compound 261, 4-(9-Cyclopentyl-5-methyl-6-oxo-6,7,8,9-tetrahydro-5H-spiro(pyrimido[4,5-b][1,4]diazepin-3,1′-cyclopropane]-2-ylamino)-3-ethyl-N-(1-methyl-piperidin-4-yl)-benzamide]	< 100
COc1cc(C(=O)NC2CCN(C)CC2)ccc1Nc1ncc2c(n1)N(CC1CC1)CC1(CC1)C(=O)N2C [compound 262, 4-(9-Cyclopropylmethyl-5-methyl-6-oxo-6,7,8,9-tetrahydro-5H-pyrimido[4,5-b][1,4]diazepin-3,1′-cyclopropane-2-ylamino)-3-methoxy-N-(1-methyl-piperidin-4-yl)-benzamide]	< 100
COc1ccc(C(=O)NCCOCCO)cc1Nc1ncc2c(n1)N(C1CCCC1)CCC(=O)N2C [compound 263, 3-(9-Cyclopentyl-5-methyl-6-oxo-6,7,8,9-tetrahydro-5H-pyrimido[4,5-b][1,4]diazepin-2-ylamino)-N-[2-(2-hydroxy-ethoxy)-ethyl]-4-methoxy-benzamide]	< 1000
CONC(=O)c1ccc(OC)c(Nc2ncc3c(n2)N(C2CCCC2)CCC(=O)N3C)c1 [compound 264, 3-(9-Cyclopentyl-5-methyl-6-oxo-6,7,8,9-tetrahydro-5H-pyrimido[4,5-b][1,4]diazepin-2-ylamino)-4,N-dimethoxy-benzamide]	< 1000
COc1ccc(C(=O)NC2CCN(Cc3ccccc3)C2)cc1Nc1ncc2c(n1)N(C1CCCC1)CCC(=O)N2C (stereo not drawn) [compound 265, N-(1-Benzyl-pyrrolidin-3-yl)-3-(9-cyclopentyl-5-methyl-6-oxo-6,7,8,9-tetrahydro-5H-pyrimido[4,5-b][1,4]diazepin-2-ylamino)-4-methoxy-benzamide]	< 1000
COc1ccc(C(=O)NCCN2CCOCC2)cc1Nc1ncc2c(n1)N(C1CCCC1)CCC(=O)N2C [compound 266, 3-(9-Cyclopentyl-5-methyl-6-oxo-6,7,8,9-tetrahydro-5H-pyrimido[4,5-b][1,4]diazepin-2-ylamino)-4-methoxy-N-(2-morpholin-4-yl-ethyl)-benzamide]	< 1000
COc1ccc(C(=O)NCCc2c[nH]cn2)cc1Nc1ncc2c(n1)N(C1CCCC1)CCC(=O)N2C [compound 267, 3-(9-Cyclopentyl-5-methyl-6-oxo-6,7,8,9-tetrahydro-5H-pyrimido[4,5-b][1,4]diazepin-2-ylamino)-N-[2-(1H-imidazol-4-yl)-ethyl]-4-methoxy-benzamide]	< 1000
COc1ccc(C(=O)NCc2cccn2C)cc1Nc1ncc2c(n1)N(C1CCCC1)CCC(=O)N2C [compound 268, 3-(9-Cyclopentyl-5-methyl-6-oxo-6,7,8,9-tetrahydro-5H-pyrimido[4,5-b][1,4]diazepin-2-ylamino)-4-methoxy-N-(1-methyl-1H-pyrrol-2-ylmethyl)-benzamide]	< 1000
